In US7098246B2, “Natural compounds and their derivatives for the prevention and treatment of cardiovascular, hepatic and renal diseases and for cosmetic applications” (Puleva Biotech, S.A., priority 2002, dated 2006):

What was measured:
[1] = Stability against forced oxidation at 120° C. in an oily food matrix (refined oil, Rancimat)
Description: This was done by measuring the remaining amount of each of the compounds when these were subjected to forced oxidation at 120° C. Oxidation was done by passing a dry air current (˜20 I/h) through an aliquot of the sample (4 ml) placed in a reactor heated to 120° C. using a Metrohm-Herisau A. G Rancimat apparatus.
The solutions of all the compounds were prepared in refined oil. A total of 5 mg of II were dissolved in 5 g of refined oil, and finally 0.5 g of this solution were dissolved in. 5 g of refined oil. Similarly, solutions III and VIII were prepared in refined oil. Aliquots of 0.3 ml were collected at different times for each solution and were stored at −20° C. […] After introducing the sample, 6 ml of hexane, 6 ml of hexane/ethyl acetate (9:1) and 10 ml of methanol were passed through it, and then the methanolic fraction was concentrated to 1 ml volume. […] Once again, the methanolic phase was concentrated to 1 ml volume for analysis.

[2] = Absorption of hydroxytyrosol and derivatives administered orally in mice (hydroxytyrosol in plasma); conditions: oral, oily solution, equivalent amounts (10 mg II, 13 mg III, 70 mg IX)
From the text: Plasma was isolated from each blood sample by extraction with ethyl acetate and analysed by gas chromatography-mass spectometry.

[3] = Absorption of hydroxytyrosol administered orally in human volunteers; type: in vivo; conditions: oral
Description: Pure hydroxytyrosol was obtained from olive leaves using standard extraction procedures compatible with the consumption of food products.
A 2.5 mg dose of hydroxytyrosol was administered per kg weight to 5 fasting healthy volunteers aged from 22–30 years who had not taken olive oil in their diet for at least two days before the study. Hydroxytyrosol dissolved in water was administered orally and afterwards blood samples were obtained at 0, 10, 20, 30, 60, 120 minutes. The plasma level of hydroxytyrosol and derived metabolites were determined by gas chromatography-mass spectometry using anthracene and napthol as internal standards.

| remaining amount of compound during forced oxidation ([1]; 120° C., dry air current, after 10 hours, RP-HPLC) [%] | time bioavailable after administration [3] | time of return of hydroxytyrosol plasma level to values similar to initial ones ([3]; 2.5 mg per kg weight in water) [min] | time of maximum plasma level of hydroxytyrosol after administration ([3]; 2.5 mg per kg weight in water, fasting) [min] | SMILES | Hydroxytyrosol in plasma, 15 min. ([2]; 15 min) [mg/L] | Hydroxytyrosol in plasma, 60 min. ([2]; 60 min) [mg/L] | degradation state during forced oxidation ([1]; 120° C., after 10 hours) | stability against oxidation compared with hydroxytyrosol ([1]; forced oxidation at 120° C.) |
| --- | --- | --- | --- | --- | --- | --- | --- | --- |
| 50 | – | – | – | CCCCCCCCCCCCCCCCCCOc1ccc(CCO)cc1O [Compound VII, 2-(4-stearyloxy-3-hydroxyphenyl) ethanol] | – | – | – | – |
| – | – | – | – | CC(=O)OCCc1ccc(O)c(O)c1 [III, 2-(3,4-dihydroxyphenyl) ethyl acetate] | 0.68 | 0.06 | completely degraded | takes longer to degrade than hydroxytyrosol (II) |
| – | at least 30 minutes | 30 | 10 | OCCc1ccc(O)c(O)c1 [II, 2-(3,4-dihydroxyphenyl) ethanol] | – | – | completely degraded | – |
